From PMC7079008, “Compactness of Protein Folds Alters Disulfide‐Bond Reducibility by Three Orders of Magnitude: A Comprehensive Kinetic Case Study on the Reduction of Differently Sized Tryptophan Cage Model Proteins” (Chembiochem, 2019) come the findings set out here.

The series can be described thus: Complete redox cycle after DTT reduction: reoxidation by dissolved O2 and precipitation, 1H NMR. Particulars: twofold excess of DTT, pH 7, 15 °C, sealed NMR tube. It counts as physicochemical. The procedure:
Incomplete conversion, despite the presence of a large excess of the RA, provided evidence for the reoxidation of the reduced SS bond of the studied model systems. To study this process in detail, the in situ reoxidation of the DTT‐reduced protein samples at […] in sealed NMR tubes (pH 7, 15 °C, twofold excess of DTT) was monitored for several weeks.
Figure 8 The 50‐membered structure ensembles of A) E11_SS⇄E11_2SH and B) E5_SS⇄E5_2SH. The fold of E11_2SH is more compact than that of E5_2SH, which has more “open” conformers, in which the Cys residues are far from each other. This allows intermolecular, rather than intramolecular, reoxidation. The dissolved oxidized and reduced protein concentrations of C) E11_SS⇄E11_2 SH and D) E5_SS⇄E5_2SH (oxidized: blue; reduced: green) as a function of time. […] E) Estimated parameters of the complete redox cycles. […] Figure S11 contains all data for parameter estimation of E11_SS, E5_SS, and E2_SS. […]
Reoxidation can take place both intra‐ and intermolecularly. […] According to our semiquantitative analysis based on the recorded ^1H NMR spectra, the integral changes of the Trp Hϵ1 resonances both in the oxidized and reduced forms of the protein during reduction with DTT show a decrease in concentration over the observed period of redox time for both E2_SS and E5_SS. […]

Where a SMILES comes first, the peptide text is derived from it. Bridges are numbered along the chain shown (N, C = ends).

Turning to `CC[C@H](C)[C@@H]1NC(=O)[C@H](Cc2ccc(O)cc2)NC(=O)[C@H](CC(C)C)NC(=O)[C@H](CCCNC(=N)N)NC(=O)[C@H](C(C)C)NC(=O)[C@@H](NC(=O)[C@H](CCC(=O)O)NC(=O)[C@H](CCC(=O)O)NC(=O)[C@H](CCC(=O)O)NC(=O)[C@H](CCSC)NC(=O)[C@H](CCC(N)=O)NC(=O)[C@H](CCCCN)NC(=O)[C@H](CO)NC(=O)[C@H](CC(C)C)NC(=O)[C@@H](N)CC(=O)O)CSSC[C@@H](C(=O)O)NC(=O)[C@@H]2CCCN2C(=O)[C@@H]2CCCN2C(=O)[C@@H]2CCCN2C(=O)[C@H](CCCNC(=N)N)NC(=O)CNC(=O)[C@H](CO)NC(=O)[C@H](CO)NC(=O)[C@@H]2CCCN2C(=O)CNC(=O)CNC(=O)[C@H](CC(=O)O)NC(=O)[C@H](CCCCN)NC(=O)[C@H](CC(C)C)NC(=O)[C@H](Cc2c[nH]c3ccccc23)NC(=O)[C@H](CCC(N)=O)NC1=O` [E11_SS] (H-DLSKQMEEECVRLYIQWLKDGGPSSGRPPPC-OH; disulfide 10-31), the “decrease of the initial dissolved protein concentration at the end of a complete redox cycle” value is on record as “remained the same”.
On to `CC[C@H](C)[C@@H]1NC(=O)[C@H](Cc2ccc(O)cc2)NC(=O)[C@H](CC(C)C)NC(=O)[C@H](CCCNC(=N)N)NC(=O)[C@H](C(C)C)NC(=O)[C@@H](NC(=O)[C@H](CCC(=O)O)NC(=O)[C@H](CCC(=O)O)NC(=O)[C@@H](N)CCC(=O)O)CSSC[C@@H](C(=O)O)NC(=O)[C@@H]2CCCN2C(=O)[C@@H]2CCCN2C(=O)[C@@H]2CCCN2C(=O)[C@H](CCCNC(=N)N)NC(=O)CNC(=O)[C@H](CO)NC(=O)[C@H](CO)NC(=O)[C@@H]2CCCN2C(=O)CNC(=O)CNC(=O)[C@H](CC(=O)O)NC(=O)[C@H](CCCCN)NC(=O)[C@H](CC(C)C)NC(=O)[C@H](Cc2c[nH]c3ccccc23)NC(=O)[C@H](CCC(N)=O)NC1=O` [E5_SS] (H-EEECVRLYIQWLKDGGPSSGRPPPC-OH; disulfide 4-25), for which the “decrease of the initial dissolved protein concentration at the end of a complete redox cycle” value is on record as 68%.
